Test results: patent US20220226484A1, “THERAPEUTIC PEPTIDES” (COHBAR, INC., priority 2019, published 2022)
Positions of bridges follow the written chain, without caps; N, C: chain ends. Non-standard residues stand in square brackets, D forms with d. Primed or numbered codes have the meaning given here. Chains are numbered I, II in the order given. No end group written: not given here. PEG12′ = not defined here; Nle = CCCC[C@H](N)C(=O)O

Assays:
A172 Cells = assay: Cell viability, PrestoBlue Assay; format: cell-based, human; conditions: peptide 10 μM, 18-20 hours, relative to 0.1% DMSO control
Method: The effect of the peptides on cell viability can be assessed in cultured cells using suitable assay of viability such as the PrestoBlue® assay (Thermo Fisher Scientific, Waltham, Mass.). Peptides were initially prepared as 10 mM stock in DMSO and tested at a final concentration of 10 μM (0.1% DMSO). […] PrestoBlue Assay Reagent was purchased from Thermo Fisher Scientific. A172 human brain glioblastoma cell line was purchased from American Type Culture Collection (Manassas, Va.). A172 cells were grown in DMEM supplemented with 10% FBS with 100 IU/ml penicillin and 100 μg/ml streptomycin. Cultures were maintained at 37° C. in a humidified atmosphere of 5% CO2/95% air. A172 cells were seeded at 8,000 cells per well on 96-well plates. […] Cell viability was determined using a PrestoBlue Assay reagent […] according to the manufacturer's instructions. Absorption for each sample well on the plate was measured using a Cytation 3 plate reader at 560 nm and 590 nm (BioTek, Winooski, Vt.). Activity was calculated relative to 0.1% DMSO untreated control. Treatment with 0.1% DMSO alone was used as the cell viability activity control. The relative standard deviation of the DMSO control was <5%.

3T3-L1 Mouse Adipocytes = assay: Free fatty acid levels in cultured mouse adipocytes; format: cell-based; conditions: peptide 10 μM, 1 nM isoproterenol, relative to isoproterenol treated cells
Method: The effect of the peptides on fatty acid metabolism can be assessed using an assay of free fatty acid levels in cultured cells such as mouse adipocytes. Peptides were initially prepared as 10 mM stock in DMSO and used at a final concentration of 10 μM (0.1% DMSO). […] Mouse 3T3-L1 cells purchased from ZenBio were seeded at 3,000 cells per well in 96-well plates in Pre-adipocyte Medium (Zen-Bio) and grown to confluence at 37° C. in a humidified atmosphere of 5% CO2/95% air. Two days after confluence, cells were placed in Adipocyte Differentiation Medium (Zen-Bio) and cultured for three additional days at 37° C. in a humidified atmosphere of 5% CO2/95% air. The culture media was then replaced with Adipocyte Maintenance Medium (Zen-Bio) and the cells maintained for an additional 9-12 days at 37° C. in a humidified atmosphere of 5% CO2/95% air with partial medium replacement every other day. Following 12-15 days of differentiation, test peptides were added at a final concentration of 10 μM in 0.1% DMSO and incubated for 20-22 hours in Adipocyte Maintenance Medium at 37° C. in a humidified atmosphere of 5% CO2/95% air. After 20-22 hours, 1 nM isoproterenol was added to all wells except untreated controls and test peptides were replenished. Insulin at 100 nM was added to control wells. Cells were incubated for 3 hours in Assay Buffer (Zen-Bio) at 37° C. in a humidified atmosphere of 5% CO2/95% air. Free fatty acid concentrations in the media were determined using a Free Fatty Acid Assay kit (Zen-Bio) according to the manufacturer's instructions using a Cytation 3 plate reader at 540 nm (BioTek, Winooski, Vt.). Absorbance values were corrected for untreated background and expressed relative to isoproterenol treated cells. Treatment with isoproterenol (1 nM) alone was used as the free fatty acid level stimulatory control. The relative standard deviation of the isoproterenol control was <10%. […] Free fatty acid levels for insulin (100 nM) treatment were <5% of the isoproterenol control value.
The effect of the peptides on fatty acid metabolism was assessed using an assay of free fatty acid levels in cultured cells such as mouse adipocytes. Peptides were initially prepared as 10 mM stock in DMSO and used at a final concentration of 10 μM (0.1% DMSO). […] Mouse 3T3-L1 cells purchased from ZenBio were seeded at 3,000 cells per well in 96-well plates in Pre-adipocyte Medium (Zen-Bio) and grown to confluence at 37° C. in a humidified atmosphere of 5% CO2/95% air. Two days after confluence, cells were placed in Adipocyte Differentiation Medium (Zen-Bio) and cultured for three additional days at 37° C. in a humidified atmosphere of 5% CO2/95% air. The culture media was then replaced with Adipocyte Maintenance Medium (Zen-Bio) and the cells maintained for an additional 9-12 days at 37° C. in a humidified atmosphere of 5% CO2/95% air with partial medium replacement every other day. Following 12-15 days of differentiation, test peptides were added at a final concentration of 10 μM in 0.1% DMSO and incubated for 20-22 hours in Adipocyte Maintenance Medium at 37° C. in a humidified atmosphere of 5% CO2/95% air. After 20-22 hours, 1 nM isoproterenol was added to all wells except untreated controls and test peptides were replenished. Insulin at 100 nM was added to control wells. Cells were incubated for 3 hours in Assay Buffer (Zen-Bio) at 37° C. in a humidified atmosphere of 5% CO2/95% air. Free fatty acid concentrations in the media were determined using a Free Fatty Acid Assay kit (Zen-Bio) according to the manufacturer's instructions using a Cytation 3 plate reader at 540 nm (BioTek, Winooski, Vt.). Absorbance values were corrected for untreated background and expressed relative to isoproterenol treated cells. Treatment with isoproterenol (1 nM) alone was used as the free fatty acid level stimulatory control. The relative standard deviation of the isoproterenol control was <10%. […]

[1] = test system: SH-SY5Y Neuroblastoma Cells; assay: ATP levels (CellTiter-Glo); format: cell-based, human; conditions: peptide 10 μM, 18-20 hours, relative to 0.1% DMSO treated control
Method: The effect of the peptides on cellular metabolism can be assessed using an assay of ATP levels in cultured cells such as human neuroblastoma cells. Peptides were initially prepared as 10 mM stock in DMSO and used at a final concentration of 10 μM (0.1% DMSO). […] CellTiter-Glo® Assay kit was purchased from Promega. SH-SY5Y human bone marrow neuroblastoma cell line was purchased from American Type Culture Collection (Manassas, Va.) and licensed from Memorial Sloan-Kettering Cancer Center (New York, N.Y.). SH-SY5Y cells were grown in DMEM/F12 medium supplemented with 10% FBS with 100 IU/ml penicillin and 100 μg/ml streptomycin. Cultures were maintained at 37° C. in a humidified atmosphere of 5% CO2/95% air. SH-SY5Y cells were seeded at 30,000 cells per well on 96-well plates. […] ATP levels were determined using a CellTiter-Glo Assay kit (Promega) according to the manufacturer's instructions. Luminescence for each sample well on the plate was measured using a Cytation 3 plate reader (BioTek, Winooski, Vt.). Activity was calculated relative to 0.1% DMSO treated control. The relative standard deviation of the result for the 0.1% DMSO treated control was <5%.

Substance	PrestoBlue Assay, Percent of Control Activity (A172 Cells) [%]	Free Fatty Acid Levels, MEAN % ISO (3T3-L1 Mouse Adipocytes; Table 6) [%]	Free Fatty Acid Levels, MEAN % ISO (3T3-L1 Mouse Adipocytes; Table 12) [%]	ATP Levels, % Control [1] [%]
MRVIRMCLGVGLLGDLAG [SEQ ID NO: 2]	100.0	26.4	26	99.6
R(dA)IR(Nle)SLNVGLLGEL(dA) (R[dA]IR[Nle]SLNVGLLGEL[dA]) [SEQ ID NO: 15]			101	
RVIR(Nle)CLNVGLLGEL(dA)G (RVIR[Nle]CLNVGLLGEL[dA]G) [SEQ ID NO: 6]			78	
RVIR(Nle)SLNVGLEGEL(dA) (RVIR[Nle]SLNVGLEGEL[dA]) [SEQ ID NO: 14]			64	
RVIR(Nle)SLNVGLLGEL(dA)G (RVIR[Nle]SLNVGLLGEL[dA]G) [SEQ ID NO: 8]			64	
RVIRMCLGVGLLGDL(dA)G (RVIRMCLGVGLLGDL[dA]G) [SEQ ID NO: 4]	97.7	20.1	20	104.7
RVIRMCLGVGLLGDLAG (disulfide I:6-II:6) [SEQ ID NO: 26]			39	
RVIRMCLGVGLLGDLAG [SEQ ID NO: 3]	98.9	19.7	20	101.5
RVIRMCLGVGLLGDLAGK{PEG12} (RVIRMCLGVGLLGDLAGK(PEG12′)) [SEQ ID NO: 17]			31	
RVIRMCLNNGLLGEL(dA)G (RVIRMCLNNGLLGEL[dA]G) [SEQ ID NO: 9]			30	
RVIRMCLNNGLNGEL(dA)E (RVIRMCLNNGLNGEL[dA]E) [SEQ ID NO: 23]			61	
RVIRMCLNVGLLGEL(dA)E (RVIRMCLNVGLLGEL[dA]E) [SEQ ID NO: 12]			22	
RVIRMCLNVGLLGEL(dA)G [SEQ ID NO: 5] (RVIRMCLNVGLLGEL[dA]G)	96.9	18.3	18	100.8
RVIRMCLNVGLNGEL(dA)G (RVIRMCLNVGLNGEL[dA]G) [SEQ ID NO: 11]			36	
RVIRMCLNVGNLGEL(dA)G (RVIRMCLNVGNLGEL[dA]G) [SEQ ID NO: 10]			29	
RVIRMSLNVGLEGEL(dA) (RVIRMSLNVGLEGEL[dA]) [SEQ ID NO: 13]			71	
RVIRMSLNVGLLGEL(dA)G (RVIRMSLNVGLLGEL[dA]G) [SEQ ID NO: 7]			77	
